Laboratory results reported in ChEMBL document CHEMBL4622879, “Structural Revision of Garcinielliptin Oxide and Garcinielliptone E” (J Nat Prod, 2020).
The source made the active and inactive calls. No cut-off for these calls is given here.

What was measured:
[1] = tested on: HCT-116; assay: Cytotoxicity against human HCT116 cells at 40 uM after 1 to 11 days by tetrazolium reagent based assay; type: functional, cell-based
[2] = tested on: A549; assay: Cytotoxicity against human A549 cells at 40 uM after 1 to 11 days by tetrazolium reagent based assay; type: functional, cell-based
[3] = tested on: MDA-MB-231; assay: Cytotoxicity against human MDA-MB-231 cells at 40 uM after 1 to 11 days by tetrazolium reagent based assay; type: functional, cell-based
[4] = tested on: K562; assay: Cytotoxicity against human K562 cells at 40 uM after 1 to 11 days by tetrazolium reagent based assay; type: functional, cell-based
[5] = tested on: HepG2; assay: Cytotoxicity against human HepG2 cells at 40 uM after 1 to 11 days by tetrazolium reagent based assay; type: functional, cell-based
[6] = tested on: RAW264.7; assay: Antiinflammatory activity in mouse RAW264.7 assessed as reduction in LPS-induced NO production; type: functional, cell-based
[7] = target: Acetylcholinesterase (Homo sapiens, UniProt P22303); assay: Inhibition of human erythrocyte acetylcholinesterase using acetylthiocholine as substrate preincubated for 20 mins followed by substrate addition and measured after 30 mins by Ellman's method
Sequence of Acetylcholinesterase (P22303 whole entry): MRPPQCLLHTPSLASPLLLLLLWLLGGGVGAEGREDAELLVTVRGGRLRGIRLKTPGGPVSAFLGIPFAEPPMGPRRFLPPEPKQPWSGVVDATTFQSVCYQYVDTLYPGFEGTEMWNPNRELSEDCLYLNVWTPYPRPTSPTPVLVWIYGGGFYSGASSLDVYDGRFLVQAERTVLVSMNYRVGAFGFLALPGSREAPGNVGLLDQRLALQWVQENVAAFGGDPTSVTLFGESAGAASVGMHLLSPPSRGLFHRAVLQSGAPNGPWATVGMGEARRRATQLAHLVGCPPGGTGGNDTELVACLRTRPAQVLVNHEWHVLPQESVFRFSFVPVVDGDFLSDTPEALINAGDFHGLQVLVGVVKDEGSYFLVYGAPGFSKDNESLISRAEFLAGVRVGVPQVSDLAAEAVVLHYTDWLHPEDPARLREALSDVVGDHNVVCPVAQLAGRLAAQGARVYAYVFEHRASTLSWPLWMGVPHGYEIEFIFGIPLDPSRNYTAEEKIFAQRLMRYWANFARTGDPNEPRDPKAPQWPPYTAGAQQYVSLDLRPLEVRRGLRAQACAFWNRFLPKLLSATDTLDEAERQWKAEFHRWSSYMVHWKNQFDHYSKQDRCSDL

Compound | Activity [1] | Activity [2] | Activity [3] | Activity [4] | Activity [5] | Activity [6] | IC50 [7]
CCC(C)C(=O)[C@]12C(=O)[C@]3(CC=C(C)C)OC1(O)[C@](CC=C(C)C)(C[C@H](CC=C(C)C)C2(C)C)C3=O (stereo partly drawn) | inactive | inactive | inactive | inactive | inactive | inactive | 
CC(C)=CC[C@H]1C[C@]2(CC=C(C)C)C(=O)[C@]3(CC=C(C)C)O[C@@]1(C(=O)C(C)C)[C@@]2(O)C(C)(C)C3=O | inactive | inactive | inactive | inactive | inactive | inactive | 20.7 µM
